Columns and labels:
[1] = system: heparan sulfate proteoglycans (HSPGs) side chains; assay: Western blot of heparan sulfate GAGs (10E4) produced by astrocytes; assay type: cell-based, mouse
Text: Compounds that were able to reduce chondroitin GAGs were also investigated for their ability to reduce heparan sulfate GAGs. […] D. & de Vries, H. E. Extensive extracellular matrix depositions in active multiple sclerosis lesions. Neurobiology of disease 24, 484-491 (2006); van Horssen, J., Bö, L., Vos, C. M., Virtanen, I. & de Vries, H. E. Basement membrane proteins in multiple sclerosis-associated inflammatory cuffs: potential role in influx and transport of leukocytes. Journal of neuropathology and experimental neurology 64, 722-729 (2005)] and have detrimental pro-inflammatory capabilities [Parish, C. R. The role of heparan sulphate in inflammation. Nature reviews. Immunology 6, 633-643 (2006)].
Astrocytes were plated in uncoated 6-well plates (3 replicate wells per treatment) at 1×10^6 cells/well in mixed glial media, and incubated at 5% CO2 and 37° C. Astrocytes were treated with compounds at 50 μM in AIM-V media for 48 hours. Media was pooled from 3 replicate wells in 15 ml 100K cutoff centricon tubes (EMD Millipore, #UFC905008), which were spun on an ultracentrifuge at 5000× g for 2 cycles of 10 minutes each. When harvested, the cell lysate was kept on ice for 5 minutes with 250 μL of RIPA buffer (ThermoFisher Scientific #89900) containing proteinase inhibitor, and then collected and centrifuged at 14000 g for 5 minutes. Total protein was quantified using a Bradford assay. Conditioned media that were to be probed for chondroitin 4-sulfate GAGs (Millipore, #MAB2030) were first digested with 0.2 U/ml chondroitinase ABC for overnight at 37° C. to remove chondroitin sulfate sidechains. Blots that were to be probed with CSA (2H6, Cosmo) or CS56 (Abcam #ab11570) were not exposed to chondroitinase ABC. Samples were heat denatured with NuPAGE® LDS Sample buffer at 70° C. for 10 minutes and then loaded into 3-8% tris-acetate pre-cast gels (ThermoFisher, #EA0478BOX). The gels were electrophoresed at a constant 150 V for 90 minutes and transferred to a […] polyvinylidene fluoride membrane at a constant 250 mA for 60 minutes. The membranes were blocked for one hour with 10% skim milk in Tris-buffered saline (TBS; 0.9% NaCl, 10 mM Tris-HCl, pH 7.5) containing 0.5% Tween 20 (TBS-T). Primary antibodies were added in 3% skim milk and incubated overnight at 4° C. The membranes were washed 5×5 minutes with TBS-T. HRP-conjugated secondary antibodies were incubated for 120 minutes. The membranes were washed again for 5×5 minutes with TBS-T. Membranes were developed using an ECL chemiluminescence kit (GE Lifesciences) and manually exposed to developing and fixative solutions. Band density was quantified using Gel Analysis on ImageJ. A rectangular shape measured the density of bands for each lane. […]

[2] = system: intact 4-sulfated chondroitin sulfate sidechains (2H6); assay: Western blot of astrocyte conditioned medium, 2H6 (intact chondroitin-4-sulfate); assay type: cell-based, mouse; settings: astrocyte conditioned media
Text: Astrocytes are major producers of CSPGs following injury in the CNS [Jones, L. L., Margolis, R. U. & Tuszynski, M. H. The chondroitin sulfate proteoglycans neurocan, brevican, phosphacan, and versican are differentially regulated following spinal cord injury. Experimental Neurology 182, 399-411 (2003); Tang, X., Davies, J. E. & Davies, S. J. Changes in distribution, cell associations, and protein expression levels of NG2, neurocan, phosphacan, brevican, versican V2, and tenascin-C during acute to chronic maturation of spinal cord scar tissue. […] The Journal of neuroscience: the official journal of the Society for Neuroscience 20, 2427-2438 (2000); McKeon, R. J., Jurynec, M. J. & Buck, C. R. The chondroitin sulfate proteoglycans neurocan and phosphacan are expressed by reactive astrocytes in the chronic CNS glial scar. The Journal of neuroscience: the official journal of the Society for Neuroscience 19, 10778-10788 (1999); Haas, C. A., Rauch, U., Thon, N., Merten, T. & Deller, T. Entorhinal cortex lesion in adult rats induces the expression of the neuronal chondroitin sulfate proteoglycan neurocan in reactive astrocytes. The Journal of neuroscience: the official journal of the Society for Neuroscience 19, 9953-9963 (1999)] and they may help drive progression of disability in a model of progressive MS [Mayo, L. et al. Regulation of astrocyte activation by glycolipids drives chronic CNS inflammation. Nature medicine 20, 1147-1156 (2014)]. Therefore astrocytes were used as model cells to determine the ability of the sugar analogs to reduce synthesis of CSPGs. Since CSPGs are exported out of cells, the conditioned media from analog-treated astrocytes were probed by Western blots (FIG. 4). We used antibodies to both the stubs of chondroitin sulfate GAGs attached to the core protein (MAB2030) and to intact 4-sulfated chondroitin sulfate sidechains (2H6) (FIG. 4a). Particularly, we used the 2H6 antibody to label intact 4-sulfated chondroitin sulfate sidechains, and the MAB2030 antibody to detect the stubs of chondroitin sulfate GAGs attached to the core protein. […] 1998, 160 (8), 3812-3819. Poole Poole C. A.; Glant T. T.; Schofield J. R.; Chondrons from articular cartilage. (IV). Immunolocalization of proteoglycan epitopes in isolated canine tibial chondrons. J. Histochem. Cytochem. 1991, 39 (9), 1175-1187].
Astrocytes were plated in uncoated 6-well plates (3 replicate wells per treatment) at 1×10^6 cells/well in mixed glial media, and incubated at 5% CO2 and 37° C. Astrocytes were treated with compounds at 50 μM in AIM-V media for 48 hours. Media was pooled from 3 replicate wells in 15 ml 100K cutoff centricon tubes (EMD Millipore, #UFC905008), which were spun on an ultracentrifuge at 5000× g for 2 cycles of 10 minutes each. […] Total protein was quantified using a Bradford assay. […]

Row | Compound | HSPG side chains (intact heparan sulfate GAGs, 10E4) [1] | total chondroitin sulfate side chains (2H6) [2]
1 | CCCC(=O)OC1OC(COC(C)=O)[C@@H](F)[C@H](OC(C)=O)C1NC(C)=O (mixture of isomers) [Compound 8, 2-Acetamido-3,6-di-O-acetyl-1-O-butanoyl-2,4-dideoxy-4-fluoro-α/β-D-glucopyranose] | slight reduction in HSPG side chains | 
2 | CC(=O)NC1C(O)OC(COC(C)=O)[C@@H](F)[C@@H]1OC(C)=O (mixture of isomers) [Compound 10] |  | showed evidence of reducing total chondroitin sulfate side chains
3 | CC(=O)NC1C(OC(C)=O)OC(COC(C)=O)C(F)(F)[C@@H]1OC(C)=O (mixture of isomers) [Compound 16, 2-Acetamido-1,3,6-tri-O-acetyl-2,4-dideoxy-4,4-difluoro-α/β-D-xylo-hexopyranose] | slight reduction in HSPG side chains | showed evidence of reducing total chondroitin sulfate side chains
4 | CC(=O)NC1C(OC(C)=O)OC(COC(C)=O)[C@@H](F)C1OC(C)=O (some centres unmarked) [Compound 3, reference compound] | slight reduction in HSPG side chains | showed evidence of reducing total chondroitin sulfate side chains
5 | CCC(=O)OC1OC(COC(C)=O)[C@@H](F)[C@H](OC(C)=O)C1NC(C)=O (stereo partly drawn) [Compound 7, 2-Acetamido-3,6-di-O-acetyl-2,4-dideoxy-4-fluoro-1-O-propanoyl-α/β-D-glucopyranose] |  | showed evidence of reducing total chondroitin sulfate side chains
6 | CCCC(=O)OC[C@H]1OC(O)[C@H](NC(C)=O)[C@@H](OC(=O)CCC)[C@@H]1F (stereo partly drawn) [Compound 12, 2-Acetamido-3,6-di-O-butanoyl-2,4-dideoxy-4-fluoro-α/β-3-D-glucopyranose] | slight reduction in HSPG side chains | 

Source: patent US12600740B2, “Fluorinated N-acetyl glucosamine analogs and xylose derivatives” (UTI Limited Partnership, priority 2018, dated 2026)
